Data published in ChEMBL document CHEMBL1201862, “PubChem BioAssay data set” (2004).
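Step 1: Grow cells in 96-well plates. Step 2: Expose to compound for 48 hours at 5 concentrations. Step 3: Interpolate endpoints linearly; if unreached, use highest concentration. GI50 marks 50% less growth.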 Activity calls are given as the source filed them. Rule as the data show it: active = GI50 up to about 1.1 µM and inactive = higher.

Assays:
Experiment in all cases: NCI-60 cell line screen, 48 h
786-0 = tested on: 786-0
ACHN = tested on: ACHN
BT-549 = tested on: BT-549
HCT-116 = tested on: HCT-116
HCT-15 = tested on: HCT-15
IGROV-1 = tested on: IGROV-1
KM12 = tested on: KM12
M14 = tested on: M14
NCI-H23 = tested on: NCI-H23
NCI-H460 = tested on: NCI-H460
NCI/ADR-RES = tested on: NCI/ADR-RES
OVCAR-8 = tested on: OVCAR-8
SF-268 = tested on: SF-268
SF-295 = tested on: SF-295
SNB-75 = tested on: SNB-75
TK-10 = tested on: TK-10
UACC-62 = tested on: UACC-62
Malme-3M = tested on: Malme-3M
SR = tested on: SR
T47D = tested on: T47D

| SMILES | GI50 (786-0) | GI50 (ACHN) | GI50 (BT-549) | GI50 (HCT-116) | GI50 (HCT-15) [µM] | GI50 (IGROV-1) | GI50 (KM12) | GI50 (M14) | GI50 (NCI-H23) | GI50 (NCI-H460) | GI50 (NCI/ADR-RES) | GI50 (OVCAR-8) | GI50 (SF-268) | GI50 (SF-295) | GI50 (SNB-75) | GI50 (TK-10) | GI50 (UACC-62) | GI50 (Malme-3M) | GI50 (SR) | GI50 (T47D) |
| --- | --- | --- | --- | --- | --- | --- | --- | --- | --- | --- | --- | --- | --- | --- | --- | --- | --- | --- | --- | --- |
| CC(=O)C1C(=O)C(=O)N(c2ccc(Br)cc2)C1=O (centres undefined) | > 100 µM (inactive) | > 100 µM (inactive) | > 100 µM (inactive) | > 100 µM (inactive) | > 100 | > 100 µM (inactive) | > 100 µM (inactive) | > 100 µM (inactive) | > 100 µM (inactive) | > 100 µM (inactive) | > 100 µM (inactive) | > 100 µM (inactive) | > 100 µM (inactive) | > 100 µM (inactive) | > 100 µM (inactive) | > 100 µM (inactive) | > 100 µM (inactive) |  |  |  |
| O=c1[nH]c2ccc(CC(=S)N3CCOCC3)cc2s1 | > 100 µM (inactive) | > 100 µM (inactive) | > 100 µM (inactive) | > 100 µM (inactive) | > 100 | > 100 µM (inactive) | > 100 µM (inactive) | > 100 µM (inactive) | > 100 µM (inactive) | > 100 µM (inactive) | > 100 µM (inactive) | > 100 µM (inactive) | > 100 µM (inactive) | > 100 µM (inactive) |  | > 100 µM (inactive) | > 100 µM (inactive) | > 100 µM (inactive) | > 100 µM (inactive) |  |
| CCOC(=O)/C(C(=S)NCc1ccccc1)=C(/N)N1CCCC1 | > 100 µM (inactive) | > 100 µM (inactive) |  | > 100 µM (inactive) | > 100 | > 100 µM (inactive) | > 100 µM (inactive) | > 100 µM (inactive) | > 100 µM (inactive) | > 100 µM (inactive) | > 100 µM (inactive) | > 100 µM (inactive) | > 100 µM (inactive) | > 100 µM (inactive) |  | > 100 µM (inactive) | > 100 µM (inactive) | > 100 µM (inactive) | > 100 µM (inactive) | > 100 µM (inactive) |
| COc1ccc(/C=C2\N=C3NC(=O)C(N4CCOCC4)=C(N)N3C2=O)cc1 | 53 µM (inactive) | 75.9 µM (inactive) |  | > 100 µM (inactive) | > 100 | 85.5 µM (inactive) | > 100 µM (inactive) | > 100 µM (inactive) | > 100 µM (inactive) |  | > 100 µM (inactive) | > 100 µM (inactive) | 76.2 µM (inactive) | 59.7 µM (inactive) | 24.8 µM (inactive) | 53.7 µM (inactive) |  | > 100 µM (inactive) | 29.9 µM (inactive) | > 100 µM (inactive) |
| CC(C)C[C@H](NC(=O)[C@@H](N)Cc1cccc2ccccc12)B(O)O | < 0.0216 µM (active) | 0.189 µM (active) | 0.0203 µM (active) | < 0.0165 µM (active) | 0.033 | 0.0665 µM (active) | 0.0281 µM (active) |  | 0.0249 µM (active) | 0.0695 µM (active) |  | 0.0719 µM (active) |  | < 0.0241 µM (active) | 0.0259 µM (active) | < 0.0182 µM (active) | 0.0482 µM (active) | 0.0224 µM (active) | < 0.0154 µM (active) | 0.0168 µM (active) |
| CN1CCN(Cn2nc(COc3ccccc3Cl)n(/N=C/c3ccc(-c4ccc(Cl)cc4Cl)o3)c2=S)CC1 | 18.6 µM (inactive) |  |  | 18.5 µM (inactive) | 24.2 | 28 µM (inactive) | 19.7 µM (inactive) | 28.8 µM (inactive) | 17.9 µM (inactive) | 22.1 µM (inactive) | 21.7 µM (inactive) | 27 µM (inactive) | 54.5 µM (inactive) | 27.4 µM (inactive) |  | 23.9 µM (inactive) |  |  | 24.3 µM (inactive) | 19.5 µM (inactive) |
| CCN(CC)CC/N=c1\c2cc(OC)ccc2[nH]c2c([N+](=O)[O-])ccc(NCCN(CC)CC)c12 | 0.399 µM (active) | 2.78 µM (inactive) |  | 0.853 µM (active) | 1.02 | 2.34 µM (inactive) | 0.875 µM (active) | 2.88 µM (inactive) | 1.86 µM (inactive) | 0.386 µM (active) | 1.01 µM (active) | 0.482 µM (active) | 2.27 µM (inactive) | 1.26 µM (inactive) | 1.9 µM (inactive) | 2.11 µM (inactive) | 5.26 µM (inactive) | 1.82 µM (inactive) | 0.16 µM (active) | > 7.38 µM (inactive) |
| C=CCN1C(=O)/C(=C\c2cc(C(C)(C)C)c(O)c(C(C)(C)C)c2)NC1=S | 20.8 µM (inactive) | 26.5 µM (inactive) | 33.9 µM (inactive) | 12.7 µM (inactive) | 22.2 | 36.6 µM (inactive) | 19.4 µM (inactive) | 26 µM (inactive) | 21.2 µM (inactive) | 15.3 µM (inactive) | 23.9 µM (inactive) | 33.9 µM (inactive) | 36.1 µM (inactive) | 21.2 µM (inactive) |  | 25 µM (inactive) | 15.8 µM (inactive) | 7.19 µM (inactive) | 21.1 µM (inactive) |  |
